Experiments:
Experiment in all cases: Adhesion suppressing properties on saliva treatment sensor chip (BIAcore)
Settings in all cases: peptide solution 1 mg/mL in PBS pH7.4
[1] = system: S. sanguis (ATCC10558); type: binding, Streptococcus sanguis
Procedure: (§1) S. sanguis (ATCC10556, ATCC10558), S. mutans (ATCC25175) were used as intraoral bacteria. All bacteria were cultured under an anaerobic conditions using Brain Heart Infusion broth (BHI; Difco Lavoratory, Detroit, Mich.) as a culture medium.
(§2) The specimen was stimulus saliva secreted by biting paraffine wax for 3 minutes by 3 subjects (A, B, C). The saliva was collected, incubated at 4° C. for 5 minutes, and centrifuged at 10000×g for 10 minutes at 4° C. Then, the supernatant was used the saliva specimen.
(§3) The adhesion suppressing properties of bacteria was confirmed by using a sensor chip as a substitute for a tooth. As the sensor chip, Pioneer Sensor Chip F1 (produced by BIAcore Company) was used. The sensor chip F1 was activated at flow speed of […] for 1 minute with 70 μL of 400 mM N-ethyl-N′-(3-diaethylaminoprophyl) carbodiimide and 100 mM N-hydroxy siccinimide solution. Then, the above saliva specimen was diluted 20 times, and bonded on the chip by passing 70 μL of sample over the activated chip. (Hereinafter, this chip was said to as a saliva treatment sensor chip)
(§4) The confirmation method of the adhesion suppressing properties by BIA core™ Biosensor system (produced by BIAcore Company) will be explained. First, each bacteria is passed over the saliva treatment sensor chip at 0.D.=1 (550 nm) and a flow speed of 20 μL/min. Then, the bonding state (Response Unit:RU) between the bacteria and saliva on the surface of the sensor chip was measured. The sensor chip was not carried out the peptide treatment.
(§5) Then, to the other saliva treatment sensor chip, which was different from the saliva treatment sensor chip adhered with bacteria, a modified SSP-5(390–402) peptide solution (1 mg/mL) dissolved with a phosphate buffer solution (PBS, pH7.4) was passed over the sensor chip at flow speed of 10 μL/min, and the surface of the saliva treatment sensor chip was treated with the peptide. Then, each bacteria was passed over the chip at 0.D.=1 (550 nm) and flow speed of 20 μL/min, and the bonding state (Response Unit:RU) between each bacteria and saliva on the sensor surface was measured. The final bacterium adhesion suppressing ratio by the peptide treatment was measured using the following formula 1. Adhesion suppressing ratio=100×{[Bonding state between bacteria and saliva (RU)]−[Bonding state between bacteria and saliva (after the peptide treatment) (RU)]}/[Bonding state between bacteria and saliva (RU)] [Formula 1]

[2] = system: S. sanguis (ATCC10556); type: binding, Streptococcus sanguis
Procedure: as §1, §2, §3, §4, §5

[3] = system: S. mutans (ATCC25175); type: binding, Streptococcus mutans
Procedure: as §1, §2, §3
The confirmation method of the adhesion suppressing properties by BIA core™ Biosensor system (produced by BIAcore Company) will be explained. […] Then, the bonding state (Response Unit:RU) between the bacteria and saliva on the surface of the sensor chip was measured. […]
as §5, with “Adhesion suppressing ratio=100×{[Bonding state between bacteria and saliva (RU)]−[Bonding state between bacteria and saliva (after the peptide treatment) (RU)]}/[Bonding state between bacteria and saliva (RU)] [Formula 1]” left out

Substance: modified SSP-5(390–402): Modified fragment (390–402) of Streptococcus sanguis surface protein SSP-5; position 400 (residue 11 of SEQ ID NO: 1) is threonine
- Adhesion suppressing ratio S. sanguis (ATCC10558) ([1]; saliva sample A): 59%
- Adhesion suppressing ratio S. sanguis (ATCC10558) ([1]; saliva sample B): 63%
- Adhesion suppressing ratio S. sanguis (ATCC10558) ([1]; saliva sample C): 61%
- Adhesion suppressing ratio S. sanguis (ATCC10556) ([2]; saliva sample A): 61%
- Adhesion suppressing ratio S. sanguis (ATCC10556) ([2]; saliva sample B): 57%
- Adhesion suppressing ratio S. sanguis (ATCC10556) ([2]; saliva sample C): 65%
- Adhesion suppressing ratio S. mutans (ATCC25175) ([3]; saliva sample A): 55%
- Adhesion suppressing ratio S. mutans (ATCC25175) ([3]; saliva sample B): 60%
- Adhesion suppressing ratio S. mutans (ATCC25175) ([3]; saliva sample C): 58%

Source: patent US7094759B2, “Oral modified SSP-5 antibacterial composition” (GC Corporation, priority 2003, dated 2006)
